By MIC is commonly meant the smallest concentration in the dilution series that meets the test's criterion for growth inhibition.

SMILES strings stand for the structures. In brackets after ≈: the same amount, converted by molar mass. Bounds are passed on as bounds.

Format in all cases: functional
Test [1] deals with Staphylococcus aureus. Kind of test: Antibacterial activity against Staphylococcus aureus 1862 assessed as inhibition of bacterial growth incubated for 18 hrs by broth microdilution method.
The test system of test [2] is Staphylococcus aureus. Kind of test: Antibacterial activity against Staphylococcus aureus 991 assessed as inhibition of bacterial growth incubated for 18 hrs by broth microdilution method. Background: Broth dilution looks for growth in wells or tubes with falling amounts of substance.
Test [3] has as its system Micrococcus luteus. Kind of test: Antibacterial activity against Micrococcus luteus ML01 assessed as inhibition of bacterial growth incubated for 18 hrs by broth microdilution method.
Test [4] deals with Enterococcus faecalis. Kind of test: Antibacterial activity against Enterococcus faecalis ATCC 29212 assessed as inhibition of bacterial growth incubated for 18 hrs by broth microdilution method.
Test [5] concerns Staphylococcus aureus. Kind of test: Antibacterial activity against Staphylococcus aureus 16339 assessed as inhibition of bacterial growth incubated for 18 hrs by broth microdilution method.
Test [6] has as its system Staphylococcus aureus. Kind of test: Antibacterial activity against Staphylococcus aureus GDE4P037P assessed as inhibition of bacterial growth incubated for 18 hrs by broth microdilution method.
Test [7] deals with Staphylococcus aureus. Put plainly: Antibacterial activity against Staphylococcus aureus ATCC 29213 assessed as inhibition of bacterial growth incubated for 18 hrs by broth microdilution method.
The subject of test [8] is Staphylococcus aureus. Put plainly: Antibacterial activity against Staphylococcus aureus 718306 assessed as inhibition of bacterial growth incubated for 18 hrs by broth microdilution method.
Test [9] has as its system Enterococcus faecalis. Put plainly: Antibacterial activity against Enterococcus faecalis 36950 assessed as inhibition of bacterial growth incubated for 18 hrs by broth microdilution method.
The test system of test [10] is Staphylococcus aureus. Put plainly: Antibacterial activity against Staphylococcus aureus 6917 assessed as inhibition of bacterial growth incubated for 18 hrs by broth microdilution method.
Test [11] concerns Enterococcus gallinarum. Kind of test: Antibacterial activity against Enterococcus gallinarum 5F52C assessed as inhibition of bacterial growth incubated for 18 hrs by broth microdilution method.
For test [12], the system named is Bacillus subtilis. Kind of test: Antibacterial activity against Bacillus subtilis BS01 assessed as inhibition of bacterial growth incubated for 18 hrs by broth microdilution method.
In test [13] the test system is Staphylococcus aureus. Put plainly: Antibacterial activity against Staphylococcus aureus 3090 assessed as inhibition of bacterial growth incubated for 18 hrs by broth microdilution method.
The test system of test [14] is Staphylococcus aureus. Put plainly: Antibacterial activity against Staphylococcus aureus 745324 assessed as inhibition of bacterial growth incubated for 18 hrs by broth microdilution method.
Test [15] has as its system Enterococcus faecium. Put plainly: Antibacterial activity against Enterococcus faecium 36235 assessed as inhibition of bacterial growth incubated for 18 hrs by broth microdilution method.
The subject of test [16] is Staphylococcus aureus. Put plainly: Antibacterial activity against Staphylococcus aureus 16162 assessed as inhibition of bacterial growth incubated for 18 hrs by broth microdilution method.
Test [17] relates to Enterococcus faecium. Put plainly: Antibacterial activity against Enterococcus faecium 36711 assessed as inhibition of bacterial growth incubated for 18 hrs by broth microdilution method.
Test [18] deals with Staphylococcus aureus. Put plainly: Antibacterial activity against Staphylococcus aureus 669 assessed as inhibition of bacterial growth incubated for 18 hrs by broth microdilution method.
Test [19] relates to Enterococcus faecium. Kind of test: Antibacterial activity against Enterococcus faecium 35682 assessed as inhibition of bacterial growth incubated for 18 hrs by broth microdilution method.
The test system of test [20] is Staphylococcus aureus. Put plainly: Antibacterial activity against methicillin-resistant Staphylococcus aureus assessed as inhibition of bacterial growth incubated for 18 hrs by broth microdilution method.
In test [21] the test system is Staphylococcus simulans. Put plainly: Antibacterial activity against Staphylococcus simulans AKA1 assessed as inhibition of bacterial growth incubated for 18 hrs by broth microdilution method.

With `CCCc1c(Cl)c(OC)c(Cl)c2c1OC(=O)c1c(CCC)c(Cl)c(O)c(Cl)c1O2`, the MIC in test [1] is 8 µg/mL (≈ 16.7 µM); in test [2] it was 16 µg/mL (≈ 33.3 µM); in [3], 1 µg/mL (≈ 2.08 µM); in test [4] it was 16 µg/mL (≈ 33.3 µM); in test [5] it was 8 µg/mL (≈ 16.7 µM); in test [6], 4 µg/mL (≈ 8.33 µM). Moreover, the MIC came to 32 µg/mL (≈ 66.6 µM) in [7]; 16 µg/mL (≈ 33.3 µM) in test [8]; 2 µg/mL (≈ 4.17 µM) in test [9]; 4 µg/mL (≈ 8.33 µM) in [10]; 2 µg/mL (≈ 4.17 µM) in [11]; 0.5 µg/mL (≈ 1.04 µM) in test [12]. Besides, the MIC is 8 µg/mL (≈ 16.7 µM) in test [13]; 8 µg/mL (≈ 16.7 µM) in [14]; 4 µg/mL (≈ 8.33 µM) in test [15]; 8 µg/mL (≈ 16.7 µM) in test [16]; 4 µg/mL (≈ 8.33 µM) in test [17]; 8 µg/mL (≈ 16.7 µM) in [18]. Also, the MIC stood at 8 µg/mL (≈ 16.7 µM) in [19], 8 µg/mL (≈ 16.7 µM) in [20] and 1 µg/mL (≈ 2.08 µM) in [21].

As for `COc1c(Cl)c(O)c(Cl)c2c1C(=O)O[C@H](C)C2`, the MIC in test [1], in test [2], in test [3], in test [4], in test [5] and in test [6] was more than 128 µg/mL in each case. Also, the MIC in [7], in [8], in test [9], in [10], in test [11] and in test [12] was more than 128 µg/mL throughout. Besides, the MIC in test [13], in test [14], in test [15], in test [16], in test [17] and in test [18] was more than 128 µg/mL throughout. The minimal inhibitory concentration (MIC) in test [19], in [20] and in test [21] was more than 128 µg/mL in each case.

On to `CCCc1c(Cl)c(OC)c(Cl)c2c1Oc1c(Cl)c(O)c(Cl)c(CCC)c1C(=O)O2`, for which the MIC in test [1] stood at 1 µg/mL (≈ 2.08 µM); in test [2], 1 µg/mL (≈ 2.08 µM); in test [3], 0.5 µg/mL (≈ 1.04 µM); in test [4] it was 1 µg/mL (≈ 2.08 µM); in [5], 1 µg/mL (≈ 2.08 µM); in test [6], 2 µg/mL (≈ 4.17 µM). The MIC is 4 µg/mL (≈ 8.33 µM) in [7]; 2 µg/mL (≈ 4.17 µM) in test [8]; 0.25 µg/mL (≈ 0.521 µM) in test [9]; 2 µg/mL (≈ 4.17 µM) in [10]; 1 µg/mL (≈ 2.08 µM) in test [11]; 0.125 µg/mL (≈ 0.26 µM) in test [12]. The MIC in test [13] worked out at 1 µg/mL (≈ 2.08 µM); in test [14] it was 2 µg/mL (≈ 4.17 µM); in test [15], 2 µg/mL (≈ 4.17 µM); in [16], 1 µg/mL (≈ 2.08 µM); in [17], 2 µg/mL (≈ 4.17 µM); in test [18] it was 1 µg/mL (≈ 2.08 µM). The MIC in [19] came to 2 µg/mL (≈ 4.17 µM); in [20], 1 µg/mL (≈ 2.08 µM); in [21], 0.25 µg/mL (≈ 0.521 µM).

For the compound `CCCc1c(Cl)c(O)cc2c1Oc1cc(O)c(Cl)c(CCC)c1C(=O)O2`, the MIC in [1] worked out at 4 µg/mL (≈ 10.1 µM); in test [2] it was 2 µg/mL (≈ 5.03 µM); in test [3], 8 µg/mL (≈ 20.1 µM); in test [4], 8 µg/mL (≈ 20.1 µM); in [5], 4 µg/mL (≈ 10.1 µM); in [6], 8 µg/mL (≈ 20.1 µM). Besides, the minimum inhibitory concentration (MIC) in [7] was 4 µg/mL (≈ 10.1 µM); in test [8], 8 µg/mL (≈ 20.1 µM); in [9], 2 µg/mL (≈ 5.03 µM); in [10] it was 8 µg/mL (≈ 20.1 µM); in [11], 8 µg/mL (≈ 20.1 µM); in test [12] it was 1 µg/mL (≈ 2.52 µM). Besides, the MIC was 4 µg/mL (≈ 10.1 µM) in [13]; 4 µg/mL (≈ 10.1 µM) in test [14]; 16 µg/mL (≈ 40.3 µM) in test [15]; 4 µg/mL (≈ 10.1 µM) in [16]; 16 µg/mL (≈ 40.3 µM) in test [17]; 2 µg/mL (≈ 5.03 µM) in test [18]. For the same compound, the MIC stood at 32 µg/mL (≈ 80.6 µM) in test [19], 4 µg/mL (≈ 10.1 µM) in test [20] and 4 µg/mL (≈ 10.1 µM) in test [21].

With `CN[C@H](CC(C)C)C(=O)N[C@H]1C(=O)N[C@@H](CC(N)=O)C(=O)N[C@H]2C(=O)N[C@H]3C(=O)N[C@H](C(=O)N[C@H](C(=O)O)c4cc(O)cc(O)c4-c4cc3ccc4O)[C@H](O)c3ccc(c(Cl)c3)Oc3cc2cc(c3O[C@@H]2O[C@H](CO)[C@@H](O)[C@H](O)[C@H]2O[C@H]2C[C@](C)(N)[C@H](O)[C@H](C)O2)Oc2ccc(cc2Cl)[C@H]1O` [VANCOMYCIN], the MIC in test [3] was 0.13 µg/mL (≈ 0.0897 µM); in test [4] it was 2 µg/mL (≈ 1.38 µM); in [9] it was 0.5 µg/mL (≈ 0.345 µM); in test [11] it was 4 µg/mL (≈ 2.76 µM); in test [12] it was 0.125 µg/mL (≈ 0.0863 µM); in test [15], more than 64 µg/mL. Also, the results for the MIC in [17], in test [19] and in test [21] were more than 64 µg/mL, more than 64 µg/mL and 0.5 µg/mL (≈ 0.345 µM), respectively.

The values are drawn from ChEMBL document CHEMBL5252555, “Antimicrobial Polyketides from the Marine-Derived Fungus Spiromastix sp. SCSIO F190” (J Nat Prod, 2023).
